Converted amounts (≈) assume the structure as drawn.
Assays:
[1] = Circular dichroism (CD) secondary structure; assay type: physicochemical
Text: The influence of the amino acid substitutions on the peptide secondary structure were investigated using circular dichroism (CD) spectroscopy under benign conditions (KP buffer) and under conditions designed to mimic the hydrophobic environment of the membrane (KP buffer with 50% TFE). D-amino acid substitutions reduced the helicity of the peptide analogs relative to that of peptide V13K, in both KP buffer and KP buffer with 50% TFE. […] As shown in Table 2 and Figure S1, the values of the relative helicity of peptides with polar face substitutions are in the order of K14D (76.99%) > S11D/K14D (51.33%) > S11D/K14D/T15D (38.67%). Similarly, the relative helicity of the peptides with substitutions on the non-polar face follows the same trend: A12D (70.83%) > F9D/A12D (38.26%) > F9D/A12D/V16D (36.41%). Since the values of the relative helicity of the peptides with D-amino acid substitutions on the non-polar face were less than those peptide analogs with the same number of D-amino acid substitutions on the polar face, it is clear that the amino acid residues on the non-polar face may be more important for stabilizing the α-helical structure than residues on the polar face.
The secondary structures of the peptides were examined using a Jasco J-810 CD spectrometer (Jasco, Easton, MD, USA) at 25 °C as described previously. […] The mean residue molar ellipticities were calculated according to the equation [θ] = θ/10lCMn, in which, θ represents the ellipticity in millidegrees, l is the optical path length of the cuvette in centimeters, CM is the peptide concentration in mol/L, and n is the number of residues in the peptide. The mean residue molar ellipticities at 222 nm, [θ]222 (degree·cm^2·dmol^−1), were used to calculate the relative helical content of the peptides.

[2] = tested on: S. epidermidis ATCC12228; experiment: Antimicrobial activity, microtiter dilution MIC; assay type: cell-based, Staphylococcus epidermidis; conditions: G+; MH medium, 5 × 10^5 CFU/mL, 37 °C, 24 h, triplicate
Procedure: (§1) The antimicrobial activity of the peptides was determined by the standard microtiter dilution method and indicated as MIC (minimal inhibitory concentration) as described previously. Briefly, bacteria were cultured in Mueller–Hinton (MH) medium overnight at 37 °C, diluted to a final inoculum of 5 × 10^5 colony-forming units (CFU)/mL with MH and loaded into 96-well microtiter plates (90 μL/well) with serial dilution of peptides (10 μL/well), with a further incubation at 37 °C for 24 h. MIC was expressed as the lowest peptide concentration that inhibited the growth of bacteria. The antimicrobial assays were repeated in triplicate.

[3] = tested on: E. coli ATCC25922; experiment: Antimicrobial activity, microtiter dilution MIC; assay type: cell-based, Escherichia coli; conditions: G−; MH medium, 5 × 10^5 CFU/mL, 37 °C, 24 h, triplicate
Procedure: as §1

[4] = RP-HPLC retention time as relative hydrophobicity; assay type: physicochemical; conditions: 25 °C, used by the paper as measure of relative hydrophobicity
Procedure: The RP-HPLC retention time has been widely used to represent the relative hydrophobicity of peptides in many studies.The relative hydrophobicity of the peptides was determined by the RP-HPLC retention times at 25 °C. The change in hydrophobicity of the peptides caused by D-amino acid substitutions was mainly due to the disruption of the helical structure.

[5] = tested on: HeLa; experiment: MTT cell viability assay; assay type: cell-based, human; conditions: 24 h, mean ± SEM of three independent determinations
Procedure: (§2) HeLa, MIA PaCa-2, HPAC, and Bxpc-3 cells were maintained in Dulbecco’s modified Eagle medium) with 10% fetal bovine serum, penicillin (100 U/mL), and streptomycin ([…]) in a humid atmosphere at 37 °C with 5% CO2. The effect of the peptides on the survival of HeLa, MIA PaCa-2, HPAC, and Bxpc-3 cells was determined by 3-(4,5-dimethyl-2-thiazolyl)-2,5-diphenyl-2H-tetrazolium bromide (MTT) assay, as described in a previous study. Briefly, cells were seeded in 96-well plates at a density of 5000 per well. After overnight incubation, cells were incubated, in the absence, or presence of various concentrations of peptides for 24 h. Then, the formazan crystals formed by MTT were dissolved with dimethyl sulfoxide (DMSO) and the absorbance was determined at 492 nm with a microplate reader (GF-M3000; Gaomi Caihong Analytical Instruments Co., Shandong, China). The results were expressed as IC50 values, representing the concentration at which cell viability was reduced by 50%. The cytotoxicity assays were repeated in triplicate.

[6] = tested on: BxPC-3; experiment: MTT cell viability assay; assay type: cell-based, human; conditions: BxPC-3, MTT, 24 h; mean ± SEM of three independent determinations
Procedure: as §2

[7] = tested on: MIA PaCa-2; experiment: MTT cell viability assay; assay type: cell-based, human; conditions: MIA PaCa-2, MTT, 24 h; mean ± SEM of three independent determinations
Procedure: as §2

[8] = tested on: HPAC; experiment: MTT cell viability assay; assay type: cell-based, human; conditions: 24 h, mean ± SEM of three independent determinations
Procedure: as §2

[9] = tested on: E. coli ATCC25922; experiment: Outer membrane permeability assay (NPN uptake); assay type: cell-based, Escherichia coli; conditions: 16 μM peptide, 10 min, excitation 350 nm, emission 420 nm
Text: To explore the potential role of the helicity of the peptides in damaging cell membranes, we investigated the disruption of the outer membrane of Escherichia coli (E. coli) by quantifying the fluorescence intensity of 1-N-phenylnaphthylamine (NPN), which is a hydrophobic fluorescent probe. The intensity of NPN is weak in a hydrophilic environment. The fluorescence intensity of NPN gradually increases as it is exposed to a more hydrophobic environment due to damage to the bacterial outer membrane by MAPs.
The outer membrane permeability of the peptides against E. coli ATCC25922 was evaluated using the hydrophobic fluorescent probe NPN, as performed previously. In brief, E. coli was cultured in LB medium at 37 °C until the absorbance of the bacterial suspension at 600 nm was 0.4–0.6, the bacterial pellet was collected by centrifugation and resuspended in a reaction buffer (pH 7.4, 5 mM HEPES, 5 mM NaN3, 0.25 mM NPN) until the absorbance at 600 nm was 0.5. Then, an aliquot of the peptide sample and the bacterial suspension were co-incubated to give a final peptide concentration of 16 μM. The same volume of reaction buffer was used as the negative control. A Shimadzu RF-5301 PC fluorescent spectrometer (excitation wavelength of 350 nm, emission wavelength of 420 nm) was used to collect data continuously for 10 min.

[10] = tested on: S. aureus ATCC25923; experiment: Antimicrobial activity, microtiter dilution MIC; assay type: cell-based, Staphylococcus aureus; conditions: G+; MH medium, 5 × 10^5 CFU/mL, 37 °C, 24 h, triplicate
Procedure: as §1

[11] = tested on: human red blood (hRBC) cells; experiment: Hemolytic activity assay; assay type: cell-based; conditions: 2% human RBC in PBS, 37 °C, 2 h, absorbance 578 nm, triplicate
Procedure: The […] of the peptides was measured by a hemolytic activity assay as described previously. Briefly, healthy human RBCs were collected using an anticoagulation tube with EDTAK2 and centrifuged at 1000 rpm for 5 min. The erythrocytes were washed three times, then diluted to a concentration of 2% in phosphate-buffered saline (PBS). The peptides were serially diluted in PBS and 70 μL of the peptide solutions and 2% RBC suspension were added simultaneously to each well of a 96-well plate (round bottom) for a further incubation at 37 °C for 2 h. Then, the plates were centrifuged for 10 min at 3000 rpm and the supernatant (90 μL) was transferred to a 96-well plate (flat bottom). The absorbance of the supernatant was measured on a microplate reader at 578 nm. Erythrocytes in PBS and distilled water were used as the negative (0%) and positive (100%) controls, respectively. The hemolytic activity was calculated as the percentage of experimental group over positive control (100%), after subtraction of negative control (0%). The hemolytic assays were repeated in triplicate.

[12] = tested on: P. aeruginosa ATCC27853; experiment: Antimicrobial activity, microtiter dilution MIC; assay type: cell-based, Pseudomonas aeruginosa; conditions: G−; MH medium, 5 × 10^5 CFU/mL, 37 °C, 24 h, triplicate
Procedure: as §1

For `CC[C@H](C)[C@H](NC(=O)[C@H](C)NC(=O)[C@H](CCCCN)NC(=O)[C@H](CC(C)C)NC(=O)[C@H](C)NC(=O)[C@@H](NC(=O)[C@H](Cc1c[nH]cn1)NC(=O)[C@H](CC(C)C)NC(=O)[C@@H](NC(=O)[C@@H](NC(=O)[C@@H](CCCCN)NC(=O)[C@H](CCCCN)NC(=O)[C@H](C)NC(=O)[C@H](CO)NC(=O)[C@H](CCCCN)NC(=O)[C@H](Cc1ccccc1)NC(=O)[C@@H](NC(=O)[C@H](CCCCN)NC(=O)[C@H](CC(C)C)NC(=O)[C@H](Cc1ccccc1)NC(=O)[C@H](CO)NC(=O)[C@H](CCCCN)NC(=O)[C@H](Cc1c[nH]c2ccccc12)NC(=O)[C@H](CCCCN)NC(C)=O)[C@@H](C)O)[C@@H](C)O)C(C)C)[C@@H](C)O)C(=O)N[C@@H](CO)C(=O)N[C@@H](CO)C(N)=O` [Peptide K14D], the “[θ]222, benign” value ([1]; CD, KP buffer (100 mM KCl, 50 mM KH2PO4/K2HPO4, pH 7.4), 75 μM peptide, 25 °C) was −2223.13 degree·cm^2·dmol^−1, the “[θ]222, 50% TFE” value ([1]; CD, KP buffer with 50% TFE, 75 μM peptide, 25 °C) was −38,897.2 degree·cm^2·dmol^−1 and the “α-Helix (%), 50% TFE (relative helicity)” value ([1]; KP buffer with 50% TFE, relative to molar ellipticity of V13K in 50% TFE) was 76.99%. The “α-Helix (%), benign” value ([1]; KP buffer, relative to molar ellipticity of V13K in 50% TFE) was 4.4%, the MIC [2] was 16 µM (≈ 47.9 µg/mL) and the MIC [3] was 32 µM (≈ 95.7 µg/mL). The “tR (RP-HPLC retention time), relative hydrophobicity” value [4] was 41.93 min, the IC50 [5] was 15.6 ± 4.1 µM and the IC50 [6] was 20 ± 0.8 µM. The IC50 [7] was 17.9 ± 2.3 µM, the IC50 [8] was 7.2 ± 5.2 µM and the “Outer membrane permeabilization, NPN fluorescence intensity” value [9] was “enhanced”. The MIC [10] was 32 µM (≈ 95.7 µg/mL), the “MHC (minimal hemolytic concentration)” value [11] was 125 µM and the MIC [12] was 16 µM (≈ 47.9 µg/mL).

— paper PMC5796017, “Enantiomeric Effect of D-Amino Acid Substitution on the Mechanism of Action of α-Helical Membrane-Active Peptides” (International Journal of Molecular Sciences, 2017)
